Reference: patent US20060030616A1, “Anhydride modified cantharidin analogues useful in the treatment of cancer” (priority 1998, published 2006)

Legend:
[1] = test system: HCT116 cells; assay: Cell cycle analysis, flow cytometry of propidium iodide stained cells; format: cell-based, human
[2] = test system: HT29 cells; assay: as above; format: cell-based, human; settings: 12 h
[3] = test system: L1210 cells; assay: Checkpoint abrogation after 6 Gy radiation, flow cytometry; format: cell-based, murine; settings: 12 h after drug
Protocol: The cells are fixed in 70% ethanol and stored at −20° C. until analysis is performed (1-2 weeks). After fixing, the cells are pelleted and incubated in PBS containing propidium iodide ([…]) and RNase A (200 mg/ml) for at least 30 min at room temperature. The samples (2×10^4 events) are analysed using a Becton Dickson FACScan, fluorescence is collected in fluorescence detector 2 (FL2), filter 575/30 nm band pass. Cell cycle distribution is assessed using Cell Quest software (Becton Dickson).
The ability of the protein phosphatase inhibitors to abrogate the G1 or G2 checkpoint of the cell cycle may be determined by cell cycle analysis using flow cytometry. Briefly, asynchronous cell cultures are harvested 18 h after 6 Gy irradiation and/or 12 h incubation with the protein phosphatase inhibitor. Depending upon the p53 status of the cell line, radiation treatment alone will induce arrest in either G1 and/or G2 phase of the cell cycle.
If the protein phosphatase inhibitor abrogates the G2 checkpoint then the cells will not arrest in the G2 phase of the cell cycle and the cells will continue through the cell cycle and accumulate in the G1 phase of the cell cycle only. Similarily if the protein phosphatase inhibitors abrogates the G1 checkpoint then the cells will not arrest in the G1 phase of the cell cycle and accumulate in the G2 phase of the cell cycle only. Cell cycle analysis using propidium iodide labelling of DNA has been used extensively in our laboratory to assess the effect of specific anticancer agents that induce S-phase cell cycle arrest and apoptotic cell death (Sakoff, Ackland and Stewart, 1998). Experiments were performed on a Becton Dickinson FACScan and using Cell Quest software.
The cells were treated with 6 Gy of radiation and then treated with cantharidin 6 h later. The ability to abrogate cell cycle arrest was assessed is 12 h after the addition of the drugs.

SMILES: O=C1OC(O)C2C3CCC(O3)C12 (centres unmarked) [MK-4]
- Cell Cycle Distribution, G1 ([1]; HCT116, 50 μM, 12 h): 43.9 percentage of total
- Cell Cycle Distribution, G2 + M ([1]; HCT116, 50 μM, 12 h): 40.7 percentage of total
- Cell Cycle Distribution, S ([1]; HCT116, 50 μM, 12 h): 11.4 percentage of total
- Cell Cycle Distribution, sub G1 ([1]; HCT116, 50 μM, 12 h): 4.5 percentage of total
- Cell Cycle Distribution, G1 ([1]; HCT116, 100 μM, 12 h): 41.4 percentage of total
- Cell Cycle Distribution, G2 + M ([1]; HCT116, 100 μM, 12 h): 44.1 percentage of total
- Cell Cycle Distribution, S ([1]; HCT116, 100 μM, 12 h): 13.6 percentage of total
- Cell Cycle Distribution, sub G1 ([1]; HCT116, 100 μM, 12 h): 2.0 percentage of total
- Cell Cycle Distribution, G1 ([1]; HCT116, 250 μM, 12 h): 36.2 percentage of total
- Cell Cycle Distribution, G2 + M ([1]; HCT116, 250 μM, 12 h): 46.9 percentage of total
- Cell Cycle Distribution, S ([1]; HCT116, 250 μM, 12 h): 14.1 percentage of total
- Cell Cycle Distribution, sub G1 ([1]; HCT116, 250 μM, 12 h): 3.9 percentage of total
- Cell Cycle Distribution, G1 ([1]; HCT116, 500 μM, 12 h): 29.0 percentage of total
- Cell Cycle Distribution, G2 + M ([1]; HCT116, 500 μM, 12 h): 46.5 percentage of total
- Cell Cycle Distribution, S ([1]; HCT116, 500 μM, 12 h): 15.7 percentage of total
- Cell Cycle Distribution, sub G1 ([1]; HCT116, 500 μM, 12 h): 9.6 percentage of total
- Cell cycle remark ([1]; HCT116, 500 μM, 12 h): G2 arrest
- Cell cycle response ([1]; HCT116, 12 h exposure): G2 arrest
- Cell Cycle Distribution, G1 ([2]; HT29, 50 μM): 51.4 percentage of total
- Cell Cycle Distribution, G2 + M ([2]; HT29, 50 μM): 31.6 percentage of total
- Cell Cycle Distribution, S ([2]; HT29, 50 μM): 12.3 percentage of total
- Cell Cycle Distribution, sub G1 ([2]; HT29, 50 μM): 4.7 percentage of total
- Cell Cycle Distribution, G1 ([2]; HT29, 100 μM): 52.3 percentage of total
- Cell Cycle Distribution, G2 + M ([2]; HT29, 100 μM): 29.4 percentage of total
- Cell Cycle Distribution, S ([2]; HT29, 100 μM): 12.5 percentage of total
- Cell Cycle Distribution, sub G1 ([2]; HT29, 100 μM): 6.0 percentage of total
- Cell Cycle Distribution, G1 ([2]; HT29, 250 μM): 53.2 percentage of total
- Cell Cycle Distribution, G2 + M ([2]; HT29, 250 μM): 27.6 percentage of total
- Cell Cycle Distribution, S ([2]; HT29, 250 μM): 11.9 percentage of total
- Cell Cycle Distribution, sub G1 ([2]; HT29, 250 μM): 7.0 percentage of total
- Cell Cycle Distribution, G1 ([2]; HT29, 500 μM): 53.7 percentage of total
- Cell Cycle Distribution, G2 + M ([2]; HT29, 500 μM): 29.1 percentage of total
- Cell Cycle Distribution, S ([2]; HT29, 500 μM): 14.1 percentage of total
- Cell Cycle Distribution, sub G1 ([2]; HT29, 500 μM): 3.4 percentage of total
- Cell cycle remark ([2]; HT29, 500 μM): G1 arrest
- Cell Cycle Distribution, G1 ([3]; L1210, 50 μM, 18 h after 6Gy): 21.2 percentage of total
- Cell Cycle Distribution, G2 + M ([3]; L1210, 50 μM, 18 h after 6Gy): 50.3 percentage of total
- Cell Cycle Distribution, S ([3]; L1210, 50 μM, 18 h after 6Gy): 28.5 percentage of total
- Cell Cycle Distribution, sub G1 ([3]; L1210, 50 μM, 18 h after 6Gy): 1.8 percentage of total
- Cell Cycle Distribution, G1 ([3]; L1210, 100 μM, 18 h after 6Gy): 22.0 percentage of total
- Cell Cycle Distribution, G2 + M ([3]; L1210, 100 μM, 18 h after 6Gy): 49.7 percentage of total
- Cell Cycle Distribution, S ([3]; L1210, 100 μM, 18 h after 6Gy): 27.4 percentage of total
- Cell Cycle Distribution, sub G1 ([3]; L1210, 100 μM, 18 h after 6Gy): 2.4 percentage of total
- Cell Cycle Distribution, G1 ([3]; L1210, 250 μM, 18 h after 6Gy): 21.2 percentage of total
- Cell Cycle Distribution, G2 + M ([3]; L1210, 250 μM, 18 h after 6Gy): 52.7 percentage of total
- Cell Cycle Distribution, S ([3]; L1210, 250 μM, 18 h after 6Gy): 24.6 percentage of total
- Cell Cycle Distribution, sub G1 ([3]; L1210, 250 μM, 18 h after 6Gy): 3.1 percentage of total
- Cell Cycle Distribution, G1 ([3]; L1210, 500 μM, 18 h after 6Gy): 18.2 percentage of total
- Cell Cycle Distribution, G2 + M ([3]; L1210, 500 μM, 18 h after 6Gy): 61.8 percentage of total
- Cell Cycle Distribution, S ([3]; L1210, 500 μM, 18 h after 6Gy): 16.0 percentage of total
- Cell Cycle Distribution, sub G1 ([3]; L1210, 500 μM, 18 h after 6Gy): 5.0 percentage of total
- Checkpoint remark ([3]; L1210, 500 μM, 18 h after 6Gy): G1 abrogation
- Checkpoint abrogation ([3]; L1210, 6 Gy): abrogated G1 arrest
